System: mouse 17B4 antibody (binding to LAG3 from HH cell lysate)
Test: ACE (automated capillary electrophoresis) peptide inhibition assay, 17B4
Details: result in words, peptide at 5000 nM and 500 nM
Description: For each assay run, HH cell lysate was mixed with 0.1× WES sample buffer reagent, and reconstituted WES 5× Fluorescent Mix reagent followed by denaturation at 95 °C for 3 min and then held on ice followed until use. Denatured sample was added to each of the designated wells of the separation module sampling plate. Dilutions of the stock rabbit SP464 and mouse 17B4 monoclonal antibodies were made to the desired concentrations using the WES detection module Antibody Dilution Buffer 2 reagent. Diluted antibody solutions were added to the designated wells of the separation module sampling plate. The remaining WES assay reagents were finally added to the plate and then processed in the WES instrument using the default running and detection parameters.
HH cell lysate samples were prepared and used as above for antibody titration assays. Rabbit SP464 and mouse 17B4 antibodies were diluted to 4 µg/mL in the WES detection module Antibody Dilution Buffer 2 reagent. The antibody solutions were then diluted 1:1 (vol/vol) with varying concentrations of peptide, or diluent as a no peptide control, for 1 h at RT, and 10 µL of each antibody/peptide solution was added to the designated wells of the separation module sampling plate. Samples were run in duplicates or triplicates. Plates were then processed in the WES instrument using default running and detection parameters.

PAAAPGHPLA [central ten amino acid fragment within the N-terminal 15 amino acids]
inhibition of 17B4 binding by immunogen fragment (ACE): inhibited binding | inhibition of 17B4 binding by immunogen fragment (ACE) (listed as center sub-domain fragment): complete inhibition
